Laboratory results: patent publication US11208443B2, “NAF-1 derived peptides and uses thereof” (YISSUM RESEARCH DEVELOPMENT COMPANY OF THE HEBREW …, priority 2017, dated 2021)
Non-standard residues stand in square brackets, D forms with d. Residues, ends and D or L forms follow the SMILES beside them.

How the values were obtained:
trypsin = test: Stability against protease cleavage, HPLC; type: in vitro ADME; details: 0.001 mg/ml protease, 450 μM peptide, 22° C.; FIG. 17B
Procedure: (§1) Stability of the D-PEP, and 3D-PEP, analogs, and of PEG-N-3D-PEP and PEG-C-3D-PEP conjugates against protease cleavage (chymotrypsin and trypsin) was tested and compared to stability of the native peptide having SEQ ID NO: 1. To peptides' stocks of 430 μl in concentration of 450 μM were added 0.001 mg/ml protease (Trypsin or Chymotrypsin) and incubated in room temperature (22° C.). Samples of 40 μl were taken before adding the protease and after every 15 min in the first hour, and after 2 […] and 24 h. To stop the proteolysis samples were added 7 μl of 2% TFA in TDW. The samples were added 60 μl TDW and were analyzed using analytical HPLC.

chymotrypsin = test: Stability against protease cleavage, HPLC; type: in vitro ADME; details: 0.001 mg/ml protease, 22° C., FIG. 17A
Procedure: as §1

[1] = tested on: PC3 (prostate cancer) spheroids; test: 3D spheroid cytotoxicity, Annexin V-red, IncuCyte; type: cell-based
Procedure: (§2) The MDA-MB-231 cells were plated in quadruplicate at 2×10^3 cells per well in a 96 well ULA plate (Corning 7007) and the cells were further cultured for 3 days to form spheroids. Then, the spheroids were treated with the peptides having SEQ ID NO:1 and the apoptosis of spheroids was assayed using Annexin V-red detection marker. Spheroids were imaged at ×10 magnification in an IncuCyte Zoom Live-cell analysis system (Essen Bioscience) at 37° C. with 5% CO2. Spheroid cell images were recorded every two hours and the resulting red colors, reflecting cell apoptosis, were analyzed with the IncuCyte software.)
(§3) Similarly to Example 2, the effect of D-PEP on “tumor like” 3D cancer cell spheroids of prostate cancer cells PC3 and MDA-MB-231, was tested and quantified. Annexin V-red apoptosis marker indicator was used to assess cytotoxicity and the cytotoxicity was calculated as integrated intensity over the surface (RCU×μm^2/Image).

[2] = Mice weight in xenograft study; type: in vivo; details: 135 μg/Kg IP or IT, days 18-30; all groups
Procedure: 30 female athymic nude (FOXN1NU) mice (5-6 weeks old) were injected subcutaneously (S.C.) with 2.5×10^6 MDA-MB-231 cells overexpressing NAF-1. Two and half weeks (day 18) after S.C. injection, mice weight and tumor size was measured. Mice were divided into three different treatment groups that were administrated 3 serial injections per week, on days 18, 21, 23, 25, 28, and 30. The groups were as follows: Group 1: Intraperitoneal (IP) injection of 135 μg/Kg D-PEP; Group 2: Intratumoral (IT) injection of PBS—control; and Group 3: Intratumoral (IT) injection of 135 μg/Kg D-PEP. On days 18, 21, 23, 25, 28 and 30 after S.C. injection of the tumor cells, tumor size and mice weight was measured in all groups.

[3] = tested on: MDA-MB-231 breast cancer spheroids; test: 3D spheroid apoptosis/cytotoxicity, Annexin V-red, IncuCyte; type: cell-based, human; details: incubated for 36 hours, 10 or 50 μM, FIG. 11
Procedure: as §2, §3

Row | time to complete degradation by trypsin (trypsin) | time to complete degradation by chymotrypsin (chymotrypsin; 450 μM peptide) | metabolised at 1400 min, 450 μM (chymotrypsin; chymotrypsin (isolated protease), after 1400 min, read-out: peptide degraded by chymotrypsin) | SMILES | cytotoxicity (total toxicity integrated intensity) ([1]; 10 μM, incubation for 8 hours, FIG. 7) | cytotoxicity (total toxicity integrated intensity) ([1]; 50 μM, 36 hour, compared to control, FIG. 8) | cytotoxicity (total toxicity integrated intensity) ([1]; 50 μM, incubation for 8 hours, FIG. 7) | mice weight [2] | cytotoxicity (total toxicity integrated intensity) [3]
1 | 400 min | ~100 min | – | CC(C)C[C@H](NC(=O)[C@H](C)NC(=O)[C@H](CC(C)C)NC(=O)[C@@H](NC(=O)CNC(=O)[C@H](CC(C)C)NC(=O)[C@@H](N)Cc1ccccc1)C(C)C)C(=O)N[C@@H](CC(C)C)C(=O)NCC(=O)N[C@@H](Cc1ccc(O)cc1)C(=O)N[C@@H](CC(C)C)C(=O)N[C@@H](C)C(=O)N[C@H](C(=O)N[C@@H](CCCNC(=N)N)C(=O)N1CCC[C@H]1C(=O)N[C@@H](Cc1ccccc1)C(=O)N[C@@H](CC(C)C)C(=O)N1CCC[C@H]1C(=O)N[C@@H](CCCCN)C(=O)N[C@@H](CCCCN)C(=O)N[C@@H](CCCCN)C(=O)N[C@@H](CCC(N)=O)C(=O)N[C@@H](CCC(N)=O)C(=O)N[C@@H](CCCCN)C(=O)O)C(C)C [SEQ ID NO: 1] (H-FLGVLALLGYLAVRPFLPKKKQQK-OH; N-terminus and C-terminus assumed) | – | – | – | – | –
2 | – | – | 20% | CC(C)C[C@@H](NC(=O)[C@H](N)Cc1ccccc1)C(=O)NCC(=O)N[C@@H](C(=O)N[C@H](CC(C)C)C(=O)N[C@H](C)C(=O)N[C@H](CC(C)C)C(=O)N[C@H](CC(C)C)C(=O)NCC(=O)N[C@H](Cc1ccc(O)cc1)C(=O)N[C@H](CC(C)C)C(=O)N[C@H](C)C(=O)N[C@@H](C(=O)N[C@H](CCCNC(=N)N)C(=O)N1CCC[C@@H]1C(=O)N[C@H](Cc1ccccc1)C(=O)N[C@H](CC(C)C)C(=O)N1CCC[C@@H]1C(=O)N[C@H](CCCCN)C(=O)N[C@H](CCCCN)C(=O)N[C@H](CCCCN)C(=O)N[C@H](CCC(N)=O)C(=O)N[C@H](CCC(N)=O)C(=O)N[C@H](CCCCN)C(=O)O)C(C)C)C(C)C [D-PEP, flgvlallgylavrpflpkkkqqk] (H-[dF][dL]G[dV][dL][dA][dL][dL]G[dY][dL][dA][dV][dR][dP][dF][dL][dP][dK][dK][dK][dQ][dQ][dK]-OH; N-terminus and C-terminus assumed) | much more moderate | much more significant cytotoxic effect than 10 μM of D-PEP | substantial cytotoxic effect | not significant change in the weight of mice | comparable to that seen for PC3 cell
